What was measured:
[1] = system: tongue lesions (4-NQO induced oral cavity carcinogenesis); test: 4-NQO mouse oral cavity carcinogenesis model: gross tongue lesion number and severity
[2] = system: mouse tongue mRNA transcriptome; test: RNA-Seq analysis of the mRNA transcriptome of mouse tongues; format: in vivo; details: compared to the 4-NQO group
Protocol: RNA-Seq analysis of the mRNA transcriptome. One part of each mouse tongue (same position on each mouse tongue) was snap frozen in liquid N2 and stored at −70° C. until total RNA extraction. Total tissue RNA was extracted and subjected to Next-Generation Sequencing (RNA-Seq) at the Genomics Resources Core Facility, Weill Cornell Medical College. Bioinfomatics analyses were performed using the Tophat and Cufflink software. (supporting information).
RNA-Seq analysis of mRNA transcriptome. […] The GEO Accession number is GSE54246; embargoed until publication.

[3] = system: 4-hydroxynonenal (4-HNE), marker of oxidative stress; test: Immunohistochemistry of tongue epithelium: 4-HNE; format: in vivo, mouse; details: compared to the 4-NQO group; antibody staining
Protocol: (§1) Immunohistochemistry. Paraffin embedded tongue sections were stained with various antibodies (supporting information).
(§2) Immunohistochemistry. Paraffin-embedded sections (from two to four mice per group) were deparaffinized and rehydrated, and antigen retrieval was performed using an antigen unmasking solution (Vector Laboratories, H-3300). After quenching endogenous peroxidase with 3% H2O2, the tissue sections were blocked with the blocking reagent (from the M.O.M. kit from Vector Laboratories for 4-HNE) or 10% goat serum (Vector Laboratories). Then, tissue sections were incubated with a 4-HNE antibody (1:700; mouse monoclonal antibody; Abcam, ab48506), a β-catenin antibody (1:400; rabbit polyclonal antibody; Abcam, ab6302), or a MMP9 antibody (1:70; rabbit polyclonal antibody; Abcam, ab38898), respectively, overnight at 4° C. The sections were then incubated with secondary antibodies (1:200, anti-mouse IgG from the M.O.M kit for 4-1-INE; ready-to-use anti-rabbit IgG from the Invitrogen SuperPicture kit for β-catenin and MMP9). As a negative control, sections were stained without incubation with primary antibodies. The signals were visualized based on a peroxidase detection mechanism with 3,3-diaminobenzidine (DAB) used as the substrate. Four to five representative areas of each mouse tongue section from two to four mice per group were photographed and analyzed.

[4] = system: GO categories in mouse tongue; test: Gene ontology (GO) analysis of RNA-Seq data; format: in vivo; details: compared to the 4-NQO group
Protocol: Gene ontology (GO) analysis. Gene ontology (GO) analysis (p-value cutoff: 0.00001), using the ConsensusPathDB online tool, was conducted on the Gene Ontology level 3 of the “Biological Process” domain that has predefined, functional sets for enrichment analysis with default parameter settings.

β-catenin = test: Immunohistochemistry of tongue epithelium: β-catenin; format: in vivo, mouse; details: compared to the 4-NQO group; antibody staining
Protocol: as §1, §2

MCT4 = test: Immunohistochemistry of tongue epithelium: MCT4; format: in vivo, mouse; details: compared to the 4-NQO group; antibody staining
Excerpt: (§3) The tongues were fixed, embedded in paraffin, and sectioned. Then the tissue sections were stained with various antibodies (magnification, 200×). Four to five representative areas of each tongue section from two to four mice/group were photographed and analyzed (FIGS. 12A and 12B). Interleukin-6 (IL-6) is a multifunctional cytokine that is involved in the regulation of immune responses and cellular functions. IL-6 levels are enhanced in human oral squamous cell carcinoma and IL-6 is considered a bad prognostic factor in this cancer (Expert Opin Ther Targets. 2013 January; 17(1):53-9). IL-6 protein was detected primarily in the basal layer of tongue epithelium in the UNT samples (FIG. 12A, arrows), but in the 4-NQO treated samples we observed both an increase in the protein level and an expansion of IL-6 signal to the suprabasal layers of the tongue epithelium (FIG. 12A).

IL-6 = test: Immunohistochemistry of tongue epithelium: IL-6; format: in vivo, mouse; details: compared to the 4-NQO group; antibody staining
Excerpt: as §3

[5] = system: pathways (Reactome, KEGG, MouseCyc) in mouse tongue; test: Pathway enrichment analysis (ConsensusPathDB) of RNA-Seq data
Protocol: RNA-Seq analysis of mRNA transcriptome. Representative tongue samples were chosen for the RNA-Seq analysis: untreated (n=5), 4-NQO treatment group (n=3), 4N+B (n=4), 4N+C (n=4), and 4N+B+C (n=5). The extraction of total cellular RNA from mouse tissues was carried out using the RNeasy kit (Qiagen). Subsequent RNA preparation steps were carried out at the Genomics Resources Core Facility of WCMC. The measurement of RNA integrity was determined using the Agilent 2100 BioAnalyzer (Agilent Technologies). Samples with RNA integrity number (RIN) values of 10 were used to construct cDNA libraries. mRNA was purified by using pre-prepared Sera-mag Magnetic Oligo(dT) Beads from Illumina Inc. (SanDiego, Calif.), subjected to thermal fragmentation, and reverse transcribed to first strand cDNA. Following the removal of mRNA strands by RNaseH, first strand cDNAs were used as templates to produce double strand cDNAs, and the overhangs resulting from fragmentation were repaired to blunt ends. An ‘A’ base was added to the 3′ end of cDNAs and subsequently the cDNAs were ligated to Illumina paired end (PE) adaptors that have a single ‘T’ base overhang at their 3′ end. The cDNA-adaptor libraries were purified and enriched by 15 cycles of PCR. The enriched libraries were hybridized to a flow cell and amplified, resulting in ultra-high density flow cells with millions of clusters, each containing about 1,000 copies of the templates. The double stranded cDNA-adaptors were denatured and converted into single strand DNA, and then the template cDNAs were amplified one more time isothermally to produce surface-bound colonies. The clonal DNA clusters were linearized, free 3′ OH ends blocked, denatured, hybridized to sequencing primers, and sequenced. The sequencing was conducted by running 4 samples per lane with 51 pair-end cycles on the HISeq2000/1000. The Sequencing-by-Synthesis process used reversible terminators and a DNA polymerase modified to accept reversible terminator nucleotides. After each synthesis cycle the fluorescence of clusters was imaged with high sensitivity. Then the sequencing images were analyzed in three steps, image analysis, base calling, and sequence analysis. The Tophat software was used to align raw sequencing reads against the UCSC mm9 mouse reference genome, and Cufflinks software was employed to measure transcript abundances in the unit of fragments per kilobase of exon model per million mapped reads (FPKM), as well as to perform statistical analysis on the changes in gene expression. The heat maps for genes of interest were generated by R package software.

[6] = Consumption of drug containing drinking water and diet; format: in vivo, mouse; details: 4-NQO treated mice, 15 week post 4-NQO treatment
Excerpt: Drug treatments reduce tongue tumor development. All of the mice tolerated the 10 week 4-NQO treatment, and almost all of the mice survived the 15 week post 4-NQO treatment period (A). We determined that the CD1530 in the regular drinking water was stable for at least 7 days at room temperature by HPLC analysis (FIG. 7); thus, we decided to use drinking water as a delivery method because this method is effective and less laborious.

[7] = Mouse serum triglyceride level measurements; format: in vivo; details: treatment for 15 weeks; compared to the UNT group
Protocol: Mouse serum triglyceride level measurements. Blood samples from the mice were obtained from mouse tails. The analysis of serum triglyceride levels was carried out at the Laboratory of Comparative Pathology of the Memorial Sloan-Kettering Cancer Center. UNT (n=4); 4-NQO (n=3); 4N+B (n=4); 4N+C (n=3), and 4N+B+C (n=4).

[8] = down-regulated vs. 4-NQO group, KEGG
[9] = down-regulated vs. 4-NQO group, Reactome
[10] = upregulated vs. 4-NQO group, KEGG

In the case of `C=C(c1ccc(C(=O)O)cc1)c1cc2c(cc1C)C(C)(C)CCC2(C)C` [bexarotene], the “number of tongue lesions (gross tongue lesion multiplicity)” value ([1]; C57BL/6 female mice, 4-NQO 10 weeks, then drug in 15 week post 4-NQO period, bexarotene 300 mg/kg diet, CD1530 […]100 ml drinking water, 4-NQO group 5.9±3.2) is reported as 5.3±1.4, the “average severity of tongue lesions (grade 0-4)” value ([1]; same model, 4-NQO group 2.8±0.8) is reported as 1.9±1.2 and the “lesions at grade 1” value ([1]; same model, 4-NQO group all lesions at or greater than grade 2) is reported as 50%. The “transcript levels of DNA replication genes (MCM 2-7 and 10, DNA2, LIG1, ORC1, POLA1, PRIM2)” value [2] was “significantly lower transcript levels of the majority of these genes”, the “number of genes with decreased transcript levels” value ([2]; p<0.05) was 614 and the “number of genes with increased transcript levels” value ([2]; p<0.05) was 436. The “number of genes with significantly different transcript levels” value ([2]; p<0.05) was 1050, the “4-HNE levels in tongue samples” value [3] was “lower” and the “GO categories related to cell cycle, DNA replication, and mitosis” value [4] was “most under-expressed”. For the same compound, the “β-catenin protein levels in the tongue epithelium” value (β-catenin) was “lower β-catenin protein levels”, the “MCT4 protein levels in the tongue epithelium” value (MCT4) was “lower MCT4 protein levels” and the “IL-6 protein levels in the tongue epithelium” value (IL-6) was “lower IL-6 protein levels”. The “candidates contained, pathway Cell cycle-Mus musculus (mouse)” value [5, 8] was 19 (15.0%), the “candidates contained, pathway Complement and coagulation cascades-Mus musculus (mouse)” value [5, 8] was 21 (27.6%) and the “candidates contained, pathway Retinol metabolism-Mus musculus (mouse)” value [5, 8] was 14 (17.7%). For the same compound, the “candidates contained, pathway Activation of ATR in response to replication stress” value [5, 9] was 10 (26.3%), the “candidates contained, pathway Activation of the pre-replicative complex” value [5, 9] was 9 (31.0%) and the “candidates contained, pathway Cell Cycle” value [5, 9] was 46 (15.1%). For the same compound, the “candidates contained, pathway Cell Cycle Checkpoints” value [5, 9] was 16 (20.8%), the “candidates contained, pathway Cell Cycle, Mitotic” value [5, 9] was 44 (16.4%) and the “candidates contained, pathway Common Pathway” value [5, 9] was 6 (46.2%). For the same compound, the “candidates contained, pathway DNA Replication” value [5, 9] was 34 (21.7%), the “candidates contained, pathway DNA Replication Pre-Initiation” value [5, 9] was 10 (27.8%) and the “candidates contained, pathway Formation of Fibrin Clot (Clotting Cascade)” value [5, 9] was 10 (29.4%). For the same compound, the “candidates contained, pathway G1/S Transition” value [5, 9] was 12 (19.4%), the “candidates contained, pathway G2/M Checkpoints” value [5, 9] was 13 (28.9%) and the “candidates contained, pathway HDL-mediated lipid transport” value [5, 9] was 7 (41.2%). The “candidates contained, pathway Hemostasis” value [5, 9] was 37 (12.3%), the “candidates contained, pathway Lipid digestion, mobilization, and transport” value [5, 9] was 11 (22.4%) and the “candidates contained, pathway Lipoprotein metabolism” value [5, 9] was 11 (35.5%). The “candidates contained, pathway M Phase” value [5, 9] was 22 (22.2%), the “candidates contained, pathway M/G1 Transition” value [5, 9] was 10 (27.8%) and the “candidates contained, pathway Metabolism of amino acids and derivatives” value [5, 9] was 21 (16.9%). The “candidates contained, pathway Mitotic G1-G1/S phases” value [5, 9] was 14 (19.2%), the “candidates contained, pathway Mitotic M-M/G1 phases” value [5, 9] was 32 (23.7%) and the “candidates contained, pathway Mitotic Prometaphase” value [5, 9] was 21 (22.1%). For the same compound, the “candidates contained, pathway Phenylalanine and tyrosine catabolism” value [5, 9] was 5 (62.5%), the “candidates contained, pathway Platelet degranulation” value [5, 9] was 15 (23.4%) and the “candidates contained, pathway Response to elevated platelet cytosolic Ca2+” value [5, 9] was 15 (21.4%). For the same compound, the “candidates contained, pathway Calcium signaling pathway-Mus musculus (mouse)” value [5, 10] was 15 (8.4%), the “candidates contained, pathway Gastric acid secretion-Mus musculus (mouse)” value [5, 10] was 10 (13.7%) and the “consumption of drug containing diet vs regular diet” value [6] was “comparable”. For the same compound, the serum triglyceride levels [7] was “did not change serum triglyceride levels significantly”.

— US10265378B2, “Combination therapy for head and neck cancer” (Cornell University, priority 2014, dated 2019)
